Results: patent US20070292908A1, “Method for Detecting Streptococcus Agalactiae Using Alpha-Glucosidase Activity” (BIOMERIEUX, priority 2004, published 2007)

Key:
Streptococcus agalactiae [1] = assay: Detection of Streptococcus agalactiae strains on reaction media containing an α-glucosidase enzymatic substrate; assay type: cell-based; conditions: substrate 0.1 g/l; for intensity (I) of coloration: arbitrary scale 0 to 4
Experimental: The reaction media were prepared by mixing heart-brain extract (4.84 g/l; Solabia), meat infusion (1.96 g/l; Solabia), biothione (1 g/l; Solabia), biotrypcase (7.2 g/l; Solabia), sodium carbonate (0.3 g/l; VWR), sodium pyruvate (2 g/l; Fluka), HEPES buffer (0.4 g/l; Sigma), lactalbumin peptone (2 g/l; DMV), glucose (1 g/l; Merck), American agar (2 g/l; Sobigel) and European agar (12 g/l; Roko).
The media were then poured into a Petri dish for subsequent inoculation with bacterial strains.
Eight Streptococcus agalactiae strains derived from the applicant's collection, suspended in physiological saline, were inoculated so as to give isolated colonies on each of the media. The dishes were then incubated at 37° C. for 48 hours. The colonies formed are examined visually after 18, 24 and more than 40 hours of incubation. The coloration of these colonies, the growth and also the intensity of this coloration were noted.
The results are given in table 1 below and are expressed: • in terms of growth (G) with the size being indicated in mm, • in terms of intensity (1) of coloration based on an arbitrary scale ranging from 0 to 4, 0 corresponding to an absence of activity and 4 corresponding to the presence of a very intense coloration, • in terms of color (Co) with T=turquoise, R=pink or red, Gr=green, Mg=magenta, • according to the incubation time in hours (T).

Streptococcus agalactiae [2] = assay: Number of strains detected as a function of the concentration of α-glucosidase substrate; assay type: cell-based; conditions: positive when I≧0.6, 8 strains
Description: The above protocol was repeated, with the exception that the concentration of enzymatic substrate was varied.
Table 2 below gives the number of strains detected (considered to be positive when I≧0.6) as a function of the concentration of substrate.

[3] = strain 0008200, 18 h incubation
[4] = strain 0008200, 24 h incubation
[5] = strain 0008200, >40 h incubation
[6] = strain 0008206, 18 h incubation
[7] = strain 0008206, 24 h incubation
[8] = strain 0008206, >40 h incubation
[9] = strain 0101060, 18 h incubation
[10] = strain 0101060, 24 h incubation
[11] = strain 0101060, >40 h incubation
[12] = strain 7611003, 18 h incubation
[13] = strain 7611003, 24 h incubation
[14] = strain 7611003, >40 h incubation
[15] = strain 7701031, 18 h incubation
[16] = strain 7701031, 24 h incubation
[17] = strain 7701031, >40 h incubation
[18] = strain 7702055, 18 h incubation
[19] = strain 7702055, 24 h incubation
[20] = strain 7702055, >40 h incubation
[21] = strain 8709013, 18 h incubation
[22] = strain 8709013, 24 h incubation
[23] = strain 8709013, >40 h incubation
[24] = strain 8904053, 18 h incubation
[25] = strain 8904053, 24 h incubation
[26] = strain 8904053, >40 h incubation
[27] = substrate 100 mg/l, incubation 24 h
[28] = substrate 100 mg/l, incubation 48 h
[29] = substrate 200 mg/l, incubation 24 h
[30] = substrate 200 mg/l, incubation 48 h
[31] = substrate 300 mg/l, incubation 24 h
[32] = substrate 300 mg/l, incubation 48 h

Substance: 5-bromo-4-chloro-3-indolyl-N-methyl-α-D-glucopyranoside [GreenA-alpha-Glu]
- intensity (I) of coloration (Streptococcus agalactiae [1]; strain 0008200, 18 h): 0.5
- growth (G), size (Streptococcus agalactiae [1]; [3]): 0.7 mm
- intensity (I) of coloration (Streptococcus agalactiae [1]; strain 0008200, 24 h): 0.8
- growth (G), size (Streptococcus agalactiae [1]; [4]): 0.7 mm
- intensity (I) of coloration (Streptococcus agalactiae [1]; strain 0008200, >40 h): 2
- growth (G), size (Streptococcus agalactiae [1]; [5]): 0.7 mm
- intensity (I) of coloration (Streptococcus agalactiae [1]; strain 0008206, 18 h): 0.6
- growth (G), size (Streptococcus agalactiae [1]; [6]): 0.7 mm
- intensity (I) of coloration (Streptococcus agalactiae [1]; strain 0008206, 24 h): 1
- growth (G), size (Streptococcus agalactiae [1]; [7]): 0.7 mm
- intensity (I) of coloration (Streptococcus agalactiae [1]; strain 0008206, >40 h): 2
- growth (G), size (Streptococcus agalactiae [1]; [8]): 0.8 mm
- intensity (I) of coloration (Streptococcus agalactiae [1]; strain 0101060, 18 h): 0.8
- growth (G), size (Streptococcus agalactiae [1]; [9]): 0.3 mm
- intensity (I) of coloration (Streptococcus agalactiae [1]; strain 0101060, 24 h): 1.7
- growth (G), size (Streptococcus agalactiae [1]; [10]): 0.4 mm
- intensity (I) of coloration (Streptococcus agalactiae [1]; strain 0101060, >40 h): 3.5
- growth (G), size (Streptococcus agalactiae [1]; [11]): 0.5 mm
- intensity (I) of coloration (Streptococcus agalactiae [1]; strain 7611003, 18 h): 2
- growth (G), size (Streptococcus agalactiae [1]; [12]): 1 mm
- intensity (I) of coloration (Streptococcus agalactiae [1]; strain 7611003, 24 h): 2
- growth (G), size (Streptococcus agalactiae [1]; [13]): 1.3 mm
- intensity (I) of coloration (Streptococcus agalactiae [1]; strain 7611003, >40 h): 3
- growth (G), size (Streptococcus agalactiae [1]; [14]): 1.7 mm
- growth (G), size (Streptococcus agalactiae [1]; [15]): 0.5 mm
- intensity (I) of coloration (Streptococcus agalactiae [1]; strain 7701031, 24 h): 0.3
- growth (G), size (Streptococcus agalactiae [1]; [16]): 0.7 mm
- intensity (I) of coloration (Streptococcus agalactiae [1]; strain 7701031, >40 h): 0.8
- growth (G), size (Streptococcus agalactiae [1]; [17]): 1.5 mm
- intensity (I) of coloration (Streptococcus agalactiae [1]; strain 7702055, 18 h): 1
- growth (G), size (Streptococcus agalactiae [1]; [18]): 0.7 mm
- intensity (I) of coloration (Streptococcus agalactiae [1]; strain 7702055, 24 h): 2
- growth (G), size (Streptococcus agalactiae [1]; [19]): 0.8 mm
- intensity (I) of coloration (Streptococcus agalactiae [1]; strain 7702055, >40 h): 3
- growth (G), size (Streptococcus agalactiae [1]; [20]): 1.7 mm
- intensity (I) of coloration (Streptococcus agalactiae [1]; strain 8709013, 18 h): 0.5
- growth (G), size (Streptococcus agalactiae [1]; [21]): 0.4 mm
- intensity (I) of coloration (Streptococcus agalactiae [1]; strain 8709013, 24 h): 1
- growth (G), size (Streptococcus agalactiae [1]; [22]): 0.5 mm
- intensity (I) of coloration (Streptococcus agalactiae [1]; strain 8709013, >40 h): 2.7
- growth (G), size (Streptococcus agalactiae [1]; [23]): 0.7 mm
- intensity (I) of coloration (Streptococcus agalactiae [1]; strain 8904053, 18 h): 0.5
- growth (G), size (Streptococcus agalactiae [1]; [24]): 0.7 mm
- intensity (I) of coloration (Streptococcus agalactiae [1]; strain 8904053, 24 h): 0.8
- growth (G), size (Streptococcus agalactiae [1]; [25]): 0.7 mm
- intensity (I) of coloration (Streptococcus agalactiae [1]; strain 8904053, >40 h): 2.3
- growth (G), size (Streptococcus agalactiae [1]; [26]): 1 mm
- number of strains detected (Streptococcus agalactiae [2]; [27]): 6/8
- number of strains detected (Streptococcus agalactiae [2]; [28]): 8/8
- number of strains detected (Streptococcus agalactiae [2]; [29]): 7/8
- number of strains detected (Streptococcus agalactiae [2]; [30]): 8/8
- number of strains detected (Streptococcus agalactiae [2]; [31]): 7/8
- number of strains detected (Streptococcus agalactiae [2]; [32]): 7/8

Substance: 5-bromo-4-chloro-3-indolyl-α-D-glucopyranoside [X-alpha-Glu]
- intensity (I) of coloration (Streptococcus agalactiae [1]; strain 0008200, 18 h): 0.3
- growth (G), size (Streptococcus agalactiae [1]; [3]): 0.7 mm
- intensity (I) of coloration (Streptococcus agalactiae [1]; strain 0008200, 24 h): 0.6
- growth (G), size (Streptococcus agalactiae [1]; [4]): 0.7 mm
- intensity (I) of coloration (Streptococcus agalactiae [1]; strain 0008200, >40 h): 2.3
- growth (G), size (Streptococcus agalactiae [1]; [5]): 0.8 mm
- intensity (I) of coloration (Streptococcus agalactiae [1]; strain 0008206, 18 h): 0.3
- growth (G), size (Streptococcus agalactiae [1]; [6]): 0.7 mm
- intensity (I) of coloration (Streptococcus agalactiae [1]; strain 0008206, 24 h): 1
- growth (G), size (Streptococcus agalactiae [1]; [7]): 0.7 mm
- intensity (I) of coloration (Streptococcus agalactiae [1]; strain 0008206, >40 h): 2
- growth (G), size (Streptococcus agalactiae [1]; [8]): 0.8 mm
- intensity (I) of coloration (Streptococcus agalactiae [1]; strain 0101060, 18 h): 2.7
- growth (G), size (Streptococcus agalactiae [1]; [9]): 0.4 mm
- intensity (I) of coloration (Streptococcus agalactiae [1]; strain 0101060, 24 h): 3
- growth (G), size (Streptococcus agalactiae [1]; [10]): 0.5 mm
- intensity (I) of coloration (Streptococcus agalactiae [1]; strain 0101060, >40 h): 4
- growth (G), size (Streptococcus agalactiae [1]; [11]): 0.7 mm
- intensity (I) of coloration (Streptococcus agalactiae [1]; strain 7611003, 18 h): 2.3
- growth (G), size (Streptococcus agalactiae [1]; [12]): 1 mm
- intensity (I) of coloration (Streptococcus agalactiae [1]; strain 7611003, 24 h): 2.7
- growth (G), size (Streptococcus agalactiae [1]; [13]): 1.2 mm
- intensity (I) of coloration (Streptococcus agalactiae [1]; strain 7611003, >40 h): 3
- growth (G), size (Streptococcus agalactiae [1]; [14]): 1.5 mm
- growth (G), size (Streptococcus agalactiae [1]; [15]): 0.5 mm
- growth (G), size (Streptococcus agalactiae [1]; [16]): 0.7 mm
- growth (G), size (Streptococcus agalactiae [1]; [17]): 1.2 mm
- intensity (I) of coloration (Streptococcus agalactiae [1]; strain 7702055, 18 h): 0.5
- growth (G), size (Streptococcus agalactiae [1]; [18]): 0.7 mm
- intensity (I) of coloration (Streptococcus agalactiae [1]; strain 7702055, 24 h): 1
- growth (G), size (Streptococcus agalactiae [1]; [19]): 1 mm
- intensity (I) of coloration (Streptococcus agalactiae [1]; strain 7702055, >40 h): 3
- growth (G), size (Streptococcus agalactiae [1]; [20]): 1.7 mm
- intensity (I) of coloration (Streptococcus agalactiae [1]; strain 8709013, 18 h): 0.1
- growth (G), size (Streptococcus agalactiae [1]; [21]): 0.4 mm
- intensity (I) of coloration (Streptococcus agalactiae [1]; strain 8709013, 24 h): 0.6
- growth (G), size (Streptococcus agalactiae [1]; [22]): 0.5 mm
- intensity (I) of coloration (Streptococcus agalactiae [1]; strain 8709013, >40 h): 2
- growth (G), size (Streptococcus agalactiae [1]; [23]): 0.7 mm
- intensity (I) of coloration (Streptococcus agalactiae [1]; strain 8904053, 18 h): 0.3
- growth (G), size (Streptococcus agalactiae [1]; [24]): 0.7 mm
- intensity (I) of coloration (Streptococcus agalactiae [1]; strain 8904053, 24 h): 0.6
- growth (G), size (Streptococcus agalactiae [1]; [25]): 0.7 mm
- intensity (I) of coloration (Streptococcus agalactiae [1]; strain 8904053, >40 h): 2.3
- growth (G), size (Streptococcus agalactiae [1]; [26]): 0.8 mm
- number of strains detected (Streptococcus agalactiae [2]; [27]): 3/8
- number of strains detected (Streptococcus agalactiae [2]; [28]): 7/8
- number of strains detected (Streptococcus agalactiae [2]; [29]): 7/8
- number of strains detected (Streptococcus agalactiae [2]; [30]): 7/8
- number of strains detected (Streptococcus agalactiae [2]; [31]): 7/8
- number of strains detected (Streptococcus agalactiae [2]; [32]): 7/8
